The values below come from publication PMC12257542, “A Radiolabeled Photoswitchable G Protein-Coupled Receptor Antagonist Enlightens Ligand Binding Kinetics Associated with Photoswitching” (Journal of the American Chemical Society, 2025).

SMILES strings stand for the structures.

Data set [1] is described as follows: Photostationary state area percentages by LC-MS at the isosbestic point. It counts as physicochemical.
A short description of data set [2]: UV-vis spectra of trans and PSS cis states in HBSS buffer. It is filed as physicochemical. As to conditions: 25 μM in HBSS buffer containing 1% DMSO. On the procedure: (§1) Experimental procedures – Photochemistry
UV−Vis spectra were recorded using a Thermo-scientific Evolution 201 PC spectrophotometer equipped with a thermostated cell holder set at 20 °C. Fits of UV−vis spectroscopy data were generated using Prism 10.1.0. Illumination for almost all photochemical experiments was executed using a Sutter instruments Lambda LS with a 300 W full-spectrum lamp connected to a Sutter instruments Lambda 10-3 optical filter changer equipped with 360 ± 10 nm, 434 ± 9 nm 494 ± 9 nm, or a Lambda 721 optical beam combiner system equipped with 365 ± 11 nm and 506 ± 14 nm filter. The light intensity used for the lambda 10-3 optical filter is 0.93 mW/mm2 using the 360 ± 20 nm filter, 0.79 mW/mm2 for the 434 ± 9 nm filter, 0.77 mW/mm2 for the 494 ± 9 nm filter as measured using a Thorlabs PM16−401 power meter. The light intensity used for the lambda 721 optical beam combiner is 200 mW using the 365 ± 11 nm filter and 60 mW for the 506 ± 12 nm filter. For photochemical analyses, illuminations were performed in Hellma Suprasil quartz 114QS cuvettes. For the dynamic illuminations, a 4-way cuvette holder (Avantes) was used. The left outlet of the holder is connected to an Avantes AvaLight-DH-S-BAL Deuterium lamp. The right outlet is connected through a fiber to an AvaSpec UV/Vis spectrometer. The lower outlet is connected to a Lambda 721 optical beam combiner system equipped with 365 ± 11 nm and 506 ± 14 nm filter illumination means. The upper outlet is covered with a black cap. The temperature of the solution in the cuvette (20 °C) is controlled by Q-blue Wireless Temperature Control software. […]
The typical distance […]
between light source and vial or cuvette was 2 cm.

Another data set deals with T1, H4R (Homo sapiens, UniProt Q9H3N8).
T1 construct: HA; expressed in transfected cells; host or cells: HEK293T, transient transfection (pcDEF3), cell homogenates
Description: Histamine receptor selectivity binding, [3H]histamine competition on cell homogenates expressing H4R. As to conditions: trans isomer; at concentrations lower than 1 μM; competition with [3H]histamine.

A further data set has as its target T2, H1R (Homo sapiens, UniProt P35367).
T2 construct: HA; expressed in transfected cells; host or cells: HEK293T, transient transfection (pcDEF3), cell homogenates
Description: Histamine receptor selectivity binding, [3H]mepyramine competition on cell homogenates expressing H1R. The following applies: trans isomer; at concentrations lower than 1 μM; competition with [3H]mepyramine.

The nature of data set [3]: Thermal relaxation of PSS cis states (Arrhenius extrapolation). It counts as physicochemical. The following applies: approximate; HBSS buffer + 1% DMSO, extrapolated to 20 °C. As to the method: as §1
UV−Vis spectra were recorded using a Thermo-scientific Evolution 201 PC spectrophotometer equipped with a thermostated cell holder set at 20 °C. Fits of UV−vis spectroscopy data were generated using Prism 10.1.0. Illumination for almost all photochemical experiments was executed using a Sutter instruments Lambda LS with a 300 W full-spectrum lamp connected to a Sutter instruments Lambda 10-3 optical filter changer equipped with 360 ± 10 nm, 434 ± 9 nm 494 ± 9 nm, or a Lambda 721 optical beam combiner system equipped with 365 ± 11 nm and 506 ± 14 nm filter. The light intensity used for the lambda 10-3 optical filter is 0.93 mW/mm2 using the 360 ± 20 nm filter, 0.79 mW/mm2 for the 434 ± 9 nm filter, 0.77 mW/mm2 for the 494 ± 9 nm filter as measured using a Thorlabs PM16−401 power meter. The light intensity used for the lambda 721 optical beam combiner is 200 mW using the 365 ± 11 nm filter and 60 mW for the 506 ± 12 nm filter. For photochemical analyses, illuminations were performed in Hellma Suprasil quartz 114QS cuvettes. For the dynamic illuminations, a 4-way cuvette holder (Avantes) was used. The left outlet of the holder is connected to an Avantes AvaLight-DH-S-BAL Deuterium lamp. The right outlet is connected through a fiber to an AvaSpec UV/Vis spectrometer. The lower outlet is connected to a Lambda 721 optical beam combiner system equipped with 365 ± 11 nm and 506 ± 14 nm filter illumination means. The upper outlet is covered with a black cap. The temperature of the solution in the cuvette (20 °C) is controlled by Q-blue Wireless Temperature Control software.
Thermal relaxation experiments and Arrhenius extrapolations were performed according to Priimagi et al20, using a compound concentration of 25 μM in HBSS +1% DMSO and temperatures of 50, 60, and 70 °C. Illuminations for pharmacological experiments were performed in cylindrical clear glass vials with a volume of 4.5 mL. The typical distance between light source and vial or cuvette was 2 cm.

T1 sequence (Q9H3N8 whole entry): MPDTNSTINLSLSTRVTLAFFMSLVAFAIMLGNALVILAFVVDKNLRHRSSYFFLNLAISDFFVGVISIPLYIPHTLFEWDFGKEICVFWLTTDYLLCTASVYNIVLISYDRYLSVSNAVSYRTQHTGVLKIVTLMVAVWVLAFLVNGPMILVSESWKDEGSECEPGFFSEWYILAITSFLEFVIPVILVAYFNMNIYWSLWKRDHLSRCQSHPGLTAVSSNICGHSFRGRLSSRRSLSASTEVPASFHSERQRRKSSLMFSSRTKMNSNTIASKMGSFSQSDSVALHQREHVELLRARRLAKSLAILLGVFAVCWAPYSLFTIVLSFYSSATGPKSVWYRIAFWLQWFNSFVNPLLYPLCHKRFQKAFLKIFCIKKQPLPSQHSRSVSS
T2 sequence (P35367 whole entry): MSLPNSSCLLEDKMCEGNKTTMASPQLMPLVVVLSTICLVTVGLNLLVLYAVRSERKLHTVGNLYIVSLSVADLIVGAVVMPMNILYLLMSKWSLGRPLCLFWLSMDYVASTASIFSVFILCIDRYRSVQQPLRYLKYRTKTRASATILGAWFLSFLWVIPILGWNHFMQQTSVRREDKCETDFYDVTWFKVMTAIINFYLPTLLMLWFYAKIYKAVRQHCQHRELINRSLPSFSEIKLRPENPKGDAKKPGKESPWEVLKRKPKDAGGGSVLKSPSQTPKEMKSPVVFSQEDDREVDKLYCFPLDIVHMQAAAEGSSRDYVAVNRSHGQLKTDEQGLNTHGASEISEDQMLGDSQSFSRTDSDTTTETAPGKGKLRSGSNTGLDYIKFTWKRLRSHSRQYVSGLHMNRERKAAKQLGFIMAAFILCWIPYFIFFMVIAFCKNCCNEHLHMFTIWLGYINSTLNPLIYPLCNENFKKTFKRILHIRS

Regarding `Cc1nn(C2CCN(C)CC2)c(C)c1/N=N/c1ccc(O[C@H]2C[C@H](N3CCCCC3)C2)cc1` [Compound 3f], in data set [1] (after illumination of trans isomer with 365 ± 10 nm at 1 mM in DMSO for 10 min), the “PSScis (area %cis)” value was 98 area %. Also, the “PSStrans (area %trans)” value in data set [1] (illumination of PSS cis state with 506 ± 20 nm at 1 mM in DMSO for 10 min) is 93 area %. In data set [2], this molecule displayed a λmax cis of 439 nm and a λmax trans of 348 nm. The “binding to H4R” value at H4R is “does not bind”. Moreover, on H1R, the “binding to H1R” value is reported as “does not bind”. The “Half-life (thermal relaxation of PSS cis state)” value in data set [3] is recorded as 13 days.
